# Measured values taken from patent US20250270238A1, “A NEW BIFUNCTIONAL LINCHPIN THAT REACTS SELECTIVELY WITH CYSTEINE RESIDUES TO INVOKE CYCLIZATION WHILE CONCURRENTLY INTRODUCING A DOTAGA MOIETY FOR RADIOMETAL CHELATION” (The Governors of the University of Alberta, priority 2022, published 2025).
# Molecular target: recombinant human SSTR3 (Homo sapiens, UniProt P32745)
# Test: [125I]SST14 radioligand binding competition, filtration-based
# Source text: This was accomplished using filtration-based assays against the radiolabeled peptide ^[125I]SST14. The reference compound used was the peptide SST28.
# SiFALP was also used to cyclize octreotide in a model reaction (Scheme 6).
# Sequence of recombinant human SSTR3 (P32745 whole entry): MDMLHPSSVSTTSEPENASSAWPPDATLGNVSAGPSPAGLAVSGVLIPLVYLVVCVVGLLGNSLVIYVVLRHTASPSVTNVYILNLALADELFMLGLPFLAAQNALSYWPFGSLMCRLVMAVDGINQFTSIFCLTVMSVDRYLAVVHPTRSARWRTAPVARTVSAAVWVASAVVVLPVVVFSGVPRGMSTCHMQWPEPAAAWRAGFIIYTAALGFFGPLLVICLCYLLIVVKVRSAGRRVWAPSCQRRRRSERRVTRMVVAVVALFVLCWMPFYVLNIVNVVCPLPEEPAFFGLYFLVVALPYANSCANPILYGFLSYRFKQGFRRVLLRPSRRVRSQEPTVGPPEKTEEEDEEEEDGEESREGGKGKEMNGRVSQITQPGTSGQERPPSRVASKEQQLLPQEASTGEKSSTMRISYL
smiles,measurement,value
C[C@@H](O)[C@@H]1NC(=O)[C@H](CCCCN)NC(=O)[C@@H](Cc2c[nH]c3ccccc23)NC(=O)[C@H](Cc2ccccc2)NC(=O)[C@@H](NC(=O)[C@H](N)Cc2ccccc2)CSC2=C(SC[C@@H](C(=O)N[C@H](CO)[C@@H](C)O)NC1=O)C(=O)N(Cc1cn(Cc3ccc([Si](F)(C(C)(C)C)C(C)(C)C)cc3)nn1)C2=O [Octreo-SiFA],IC50,211 nM
